The source of these data is US9555039B2, “Piperidine derivatives and compositions for the inhibition of nicotinamide phosphoribosyltransferase (NAMPT)” (Forma TM, LLC., priority 2011, dated 2017).

T1 sequence (P43490 whole entry): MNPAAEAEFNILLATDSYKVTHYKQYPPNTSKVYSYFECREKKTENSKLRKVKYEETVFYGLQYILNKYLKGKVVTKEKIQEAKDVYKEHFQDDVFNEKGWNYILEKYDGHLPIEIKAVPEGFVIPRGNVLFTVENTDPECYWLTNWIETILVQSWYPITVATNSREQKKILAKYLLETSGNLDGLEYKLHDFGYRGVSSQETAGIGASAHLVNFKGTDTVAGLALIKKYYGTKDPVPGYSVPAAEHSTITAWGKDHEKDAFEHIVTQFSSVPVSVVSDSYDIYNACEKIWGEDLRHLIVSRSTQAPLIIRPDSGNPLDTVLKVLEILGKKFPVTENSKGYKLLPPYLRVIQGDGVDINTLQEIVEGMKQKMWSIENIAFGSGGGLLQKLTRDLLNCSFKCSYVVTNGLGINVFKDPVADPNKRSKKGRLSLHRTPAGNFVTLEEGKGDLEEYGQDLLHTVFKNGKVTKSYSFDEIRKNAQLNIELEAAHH

One test addresses T1, Recombinant His-tagged NAMPT (Homo sapiens, UniProt P43490).
T1 construct: His; host or cells: E. coli
Briefly: Biochemical inhibition assay: NAMPT enzymatic reaction, NMN quantified by mass spectrometry. To be noted: 33 nM NAMPT, 1 μM NAM, 100 μM PRPP, 2.5 mM ATP, 30 minutes at room temperature; read-out: Biochem IC50. As for the experimental part:
Biochemical Inhibition Assay
NAMPT Protein Purification
Recombinant His-tagged NAMPT was produced in E. coli cells, purified over a Ni column, and further purified over a size-exclusion column by XTAL Biostructures.
The NAMPT Enzymatic Reaction
The NAMPT enzymatic reactions were carried out in Buffer A (50 mM Hepes pH 7.5, 50 mM NaCl, 5 mM MgCl2, and 1 mM THP) in 96-well V-bottom plates. The compound titrations were performed in a separate dilution plate by serially diluting the compounds in DMSO to make a 100× stock. […] The compound and enzyme mix was incubated for 15 minutes at room temperature, then 10 μL of 10× substrate and co-factors in Buffer A were added to the test well to make a final concentration of 1 μM NAM, 100 μM 5-Phospho-D-ribose 1-diphosphate (PRPP), and 2.5 mM Adenosine 5′-triphosphate (ATP). The reaction was allowed to proceed for 30 minutes at room temperature, then was quenched with the addition of 11 μL of a solution of formic acid and L-Cystathionine to make a final concentration of 1% formic acid and 10 μM L-Cystathionine. Background and signal strength was determined by addition (or non-addition) of a serial dilution of NMN to a pre-quenched enzyme and cofactor mix.
A mass spectrometry-based assay was used to measure the Nampt reaction product (NMN) and the internal control (L-Cystathionine). NMN and L-Cystathionine were detected using the services of Biocius Lifesciences with the RapidFire system. In short, the NMN and L-Cystathionine are bound to a graphitic carbon cartridge in 0.1% formic acid, eluted in 30% acetonitrile buffer, and injected into a Sciex 4000 mass spectrometer. The components of the sample were ionized with electrospray ionization and the positive ions were detected. […] The fragments are quantified and the analyzed by the following method.
First the NMN signal is normalized to the L-Cystathionine signal by dividing the NMN signal by the L-Cystathionine signal for each well. The signal from the background wells are averaged and subtracted from the test plates.
Wherein x denotes the average signal of the compound treated wells and y denotes the average signal of the DMSO treated wells.
IC50s are Determined Using Excel and this Formula.
Wherein X denotes the compound concentration 1, Y denotes the compound concentration 2, XX denotes the % inhibition at compound concentration 1 (X), and YY denotes the % inhibition at compound concentration 2 (Y).
Consider `O=C(NCCCCC1CN(C(=O)c2ccccc2)C1)c1cc2cnccc2[nH]1` [N-[4-(1-benzoylazetidin-3-yl)butyl]-1H-pyrrolo[3,2-c]pyridine-2-carboxamide], for which the IC50 (usually the point on the concentration scale where inhibition reaches its midpoint) is 23.2 nM.
Same read-out and setting: next, `CC(C)c1ncoc1C(=O)N1CCC(CCCCNC(=O)c2cc3cnccc3[nH]2)CC1` [N-[4-(1-{[4-(propan-2-yl)-1,3-oxazol-5-yl]carbonyl}piperidin-4-yl)butyl]-1H-pyrrolo[3,2-c]pyridine-2-carboxamide]: 30.4 nM; `O=C(NCCCCC1CCN(C(=O)c2csc(-c3cccnc3)n2)CC1)c1ccc2nccn2c1` [N-[4-(1-{[2-(pyridin-3-yl)-1,3-thiazol-4-yl]carbonyl}piperidin-4-yl)butyl]imidazo[1,2-a]pyridine-6-carboxamide]: 61.1 nM; `COCc1ccc(C(=O)N2CCC(CCCCNC(=O)c3cc4ccncc4s3)CC2)nc1` [N-[4-(1-{[5-(methoxymethyl)pyridin-2-yl]carbonyl}piperidin-4-yl)butyl]thieno[2,3-c]pyridine-2-carboxamide]: 18.3 nM.
Same read-out and setting: next, `O=C(NCc1ccc(S(=O)(=O)c2ccc(C(=O)N3CCCC3)cc2)cc1)c1cc2ccncc2s1` [N-{[4-({4-[(pyrrolidin-1-yl)carbonyl]benzene}sulfonyl)phenyl]methyl}thieno[2,3-c]pyridine-2-carboxamide]: 3.7 nM; `O=C(NCCCCC1CCN(C(=O)c2cc(F)ccc2F)CC1)c1cc2cnccc2[nH]1` [N-(4-{1-[(2,5-difluorophenyl)carbonyl]piperidin-4-yl}butyl)-1H-pyrrolo[3,2-c]pyridine-2-carboxamide]: 10.3 nM; `Cc1oncc1S(=O)(=O)N1CCC(CCCCNC(=O)c2cc3cnccc3[nH]2)CC1` [N-{4-[1-(5-methyl-1,2-oxazole-4-sulfonyl)piperidin-4-yl]butyl}-1H-pyrrolo[3,2-c]pyridine-2-carboxamide]: 36.7 nM.
Still for that read-out and setting: next, `O=C(NCc1ccc(S(=O)(=O)c2ccc(C(=O)N3CCCC3)cc2)cc1)c1cnc2[nH]ncc2c1` [N-{[4-({4-[(pyrrolidin-1-yl)carbonyl]benzene}sulfonyl)phenyl]methyl}-1H-pyrazolo[3,4-b]pyridine-5-carboxamide]: 15.8 nM.
In the case of `COc1ccc(F)cc1S(=O)(=O)N1CCC(CCCCNC(=O)c2cc3cnccc3[nH]2)CC1` [N-(4-{1-[(5-fluoro-2-methoxybenzene)sulfonyl]piperidin-4-yl}butyl)-1H-pyrrolo[3,2-c]pyridine-2-carboxamide], the IC50 stood at 23.2 nM.
The same measure, in the same setting: next, `O=C(NCCCCC1CCN(C(=O)c2ccc(C(F)(F)F)cn2)CC1)c1ccc2nccn2c1` [N-[4-(1-{[5-(trifluoromethyl)pyridin-2-yl]carbonyl}piperidin-4-yl)butyl]imidazo[1,2-a]pyridine-6-carboxamide]: 82.3 nM; `CC(C)c1ncoc1C(=O)N1CCC(CCCCNC(=O)c2cc3ccncc3s2)CC1` [N-[4-(1-{[4-(propan-2-yl)-1,3-oxazol-5-yl]carbonyl}piperidin-4-yl)butyl]thieno[2,3-c]pyridine-2-carboxamide]: 7.4 nM; `O=C(NCCCCC1CCN(C(=O)c2ccc3nccn3c2)CC1)c1ccc2nccn2c1` [N-{4-[1-({imidazo[1,2-a]pyridin-6-yl}carbonyl)piperidin-4-yl]butyl}imidazo[1,2-a]pyridine-6-carboxamide]: 8.5 nM.
Still for that read-out and setting: next, `O=C(NCCCCC1CCN(C(=O)c2ccccc2Cl)CC1)c1cc2cnccc2[nH]1` [N-(4-{1-[(2-chlorophenyl)carbonyl]piperidin-4-yl}butyl)-1H-pyrrolo[3,2-c]pyridine-2-carboxamide]: 15.8 nM.
Same read-out and setting: next, `O=C(NCCCCC1CCN(C(=O)c2cc3cc(F)ccc3[nH]2)CC1)c1ccc2nccn2c1` [N-(4-{1-[(5-fluoro-1H-indol-2-yl)carbonyl]piperidin-4-yl}butyl)imidazo[1,2-a]pyridine-6-carboxamide]: 71.3 nM; `O=C(NCCCCC1CCN(C(=O)c2csc(-c3ccccc3)n2)CC1)c1ccc2nccn2c1` [N-(4-{1-[(2-phenyl-1,3-thiazol-4-yl)carbonyl]piperidin-4-yl}butyl)imidazo[1,2-a]pyridine-6-carboxamide]: 52.3 nM; `Cc1ccc(C(=O)N2CCC(CCCCNC(=O)c3ccc4nccn4c3)CC2)cc1F` [N-(4-{1-[(3-fluoro-4-methylphenyl)carbonyl]piperidin-4-yl}butyl)imidazo[1,2-a]pyridine-6-carboxamide]: 39.4 nM.
Take `O=C(NCCCCC1CCN(C(=O)c2ccccc2Cl)CC1)c1ccc2nccn2c1` [N-(4-{1-[(2-chlorophenyl)carbonyl]piperidin-4-yl}butyl)imidazo[1,2-a]pyridine-6-carboxamide]: the IC50 was 5 nM.

The test system of the next test is A2780 cells. Briefly: In-vitro cell proliferation assay (SRB, 72 hours). In kind it is cell-based. Conditions: Homo sapiens, sulforhodamine B (SRB) assay. As for the experimental part: In-Vitro Cell Proliferation Assay
After overnight incubation at 37° C. and 5% CO2, the compound titrations were performed in a separate dilution plate by serially diluting the compounds in DMSO to make a 1000× stock. The compounds were then further diluted to 10× final concentration in culture media, whereupon 20 μL of each dilution was added to the plated cells with controls (e.g. DMSO and blank) to make a final volume of 200 μL. The final DMSO concentration in each well was 0.1%. The plates were then incubated for 72 hours at 37° C. in a 5% CO2 incubator. The number of viable cells was then assessed using sulforhodamine B (SRB) assay. Cells were fixed at 4° C. for 1 hour with the addition of 50 μL 30% trichloroacetic acid (TCA) to make a final concentration of 6% TCA. The plates were washed four times with H2O and allowed to dry for at least 1 hour, whereupon 100 μL of a 4% SRB in 1% acetic acid solution was added to each well and incubated at room temperature for at least 30 minutes. The plates were then washed three times with 1% acetic acid, dried, and treated with 100 μL of 10 mM Tris-Base solution. The plates were then read in a microplate reader at an absorbance of 570 nm. Background was generated on a separate plate with media only.
Method for Determining % Inhibition
First, the signals from the background plate are averaged, then the background was subtracted from the test plates.
wherein x denotes the average signal of the compound-treated cells and y denotes the average signal of the DMSO-treated cells.
wherein X denotes the compound concentration 1, Y denotes the compound concentration 2, XX denotes the % inhibition at compound concentration 1 (X), and YY denotes the % inhibition at compound concentration 2 (Y).
Molecule `CC(C)c1ncoc1C(=O)N1CCC(CCCCNC(=O)c2cc3cnccc3[nH]2)CC1` [N-[4-(1-{[4-(propan-2-yl)-1,3-oxazol-5-yl]carbonyl}piperidin-4-yl)butyl]-1H-pyrrolo[3,2-c]pyridine-2-carboxamide] yielded an IC50 of 5.3 nM.
The same measure, in the same setting: next, `O=C(NCCCCC1CCN(C(=O)c2csc(-c3cccnc3)n2)CC1)c1ccc2nccn2c1` [N-[4-(1-{[2-(pyridin-3-yl)-1,3-thiazol-4-yl]carbonyl}piperidin-4-yl)butyl]imidazo[1,2-a]pyridine-6-carboxamide]: 67 nM; `O=C(NCCCCC1CCN(C(=O)c2cc(F)ccc2F)CC1)c1cc2ccncc2s1` [N-(4-{1-[(2,5-difluorophenyl)carbonyl]piperidin-4-yl}butyl)thieno[2,3-c]pyridine-2-carboxamide]: 1.6 nM; `COc1ccc(Cl)cc1C(=O)N1CCC(CCCCNC(=O)c2cc3cnccc3[nH]2)CC1` [N-(4-{1-[(5-chloro-2-methoxyphenyl)carbonyl]piperidin-4-yl}butyl)-1H-pyrrolo[3,2-c]pyridine-2-carboxamide]: 3.3 nM.
The same measure, in the same setting: next, `O=C(NCCCCC1CCN(C(=O)c2ccc(-n3cccn3)cc2)CC1)c1ccc2nccn2c1` [N-[4-(1-{[4-(1H-pyrazol-1-yl)phenyl]carbonyl}piperidin-4-yl)butyl]imidazo[1,2-a]pyridine-6-carboxamide]: 67.1 nM.
As for `COc1cccc(C(=O)N2CCC(CCCCNC(=O)c3ccc4nccn4c3)CC2)c1` [N-(4-{1-[(3-methoxyphenyl)carbonyl]piperidin-4-yl}butyl)imidazo[1,2-a]pyridine-6-carboxamide], 6.6 nM corresponded to half-maximal inhibition (IC50).
As to `O=C(NCCCCC1CCN(C(=O)c2ccc(F)cc2)CC1)c1cc2cnccc2[nH]1` [N-(4-{1-[(4-fluorophenyl)carbonyl]piperidin-4-yl}butyl)-1H-pyrrolo[3,2-c]pyridine-2-carboxamide], the IC50 was found to be 14.7 nM.
On to `Cc1cccc(C(=O)N2CCC(CCCCNC(=O)c3cc4ccncc4s3)CC2)c1F` [N-(4-{1-[(2-fluoro-3-methylphenyl)carbonyl]piperidin-4-yl}butyl)thieno[2,3-c]pyridine-2-carboxamide], for which half-maximal inhibition (IC50) was put at 12.6 nM.
The same measure, in the same setting: next, `COc1cccc(C(=O)N2CCC(CCCCNC(=O)c3cc4cnccc4[nH]3)CC2)c1` [N-(4-{1-[(3-methoxyphenyl)carbonyl]piperidin-4-yl}butyl)-1H-pyrrolo[3,2-c]pyridine-2-carboxamide]: 3.8 nM; `O=C(NCCCCC1CCN(C(=O)c2cccc(Cl)c2)CC1)c1cc2cnccc2[nH]1` [N-(4-{1-[(3-chlorophenyl)carbonyl]piperidin-4-yl}butyl)-1H-pyrrolo[3,2-c]pyridine-2-carboxamide]: 11.9 nM.
The molecule `COc1cc(OC)cc(C(=O)N2CCC(CCCCNC(=O)c3ccc4nccn4c3)CC2)c1` [N-(4-{1-[(3,5-dimethoxyphenyl)carbonyl]piperidin-4-yl}butyl)imidazo[1,2-a]pyridine-6-carboxamide] returned an IC50 of 2.8 nM.
On the same count and under the same terms, next, `O=C(NCCc1ccc(OCc2ccccc2)cc1)c1cc2cnccc2[nH]1` [N-(4-(benzyloxy)phenethyl)-1H-pyrrolo[3,2-c]pyridine-2-carboxamide]: 2000 nM.
